The record followed here is publication PMC9927457 (Microbiology Spectrum, 2023).

≈ marks a conversion by molar mass, not a printed value. A value given as a limit tells only on which side of the number the result lay.

Series [1] concerns M. tuberculosis wild-type strain. Nature of the series: MIC against wild-type M. tuberculosis. Conditions: concentration required to inhibit growth by 90%, 5 days culture; for MIC: Mycobacterium tuberculosis, 120 h, read-out: MIC Wild type. It counts as cell-based, Mycobacterium tuberculosis.
A short description of series [2]: in vitro. Conditions: human. On the procedure: (§1) Permeability was measured across Caco-2 cells cultured in a Millipore 96-well Caco-2 plate. For apical to basolateral (A→B) permeability, 10 μM compound was added to the apical (A) side and amount of permeation was determined on the basolateral (B) side; for basolateral to apical (B→A) permeability, the compound was added to the B side and the amount of permeation was determine on the A side. Time points were taken at 2 h.
(§2) Table S2. Permeability. Permeability was measured using Caco-2 cells after 1 and 2 hours incubation with compound. (A→B) is Apical to Basolateral; (B→A) is Basolateral to Apical. Data is expressed as permeability (10-6 cm s-1). dQ/dt is rate of permeation, C0 is initial concentration […]
(§3) Article Duration direction value replicate replicate mean recovery

Series [3] relates to Caco-2 cells. Nature of the series: Caco-2 permeability. Conditions: for recovery: human, 10 μM. The procedure:
as §1, §2, §3

The target in series [4] is SPase activity in M. tuberculosis H37Rv cell membrane fractions (Mycobacterium tuberculosis, UniProt P9WKA1). Nature of the series: Inhibition of secretion (SPase activity) in membrane fractions. It counts as biochemical. Conditions: fluorogenic peptide substrate 2 μM; 4 h, 37 °C.
In series [5] the target is CYP2C19 (Homo sapiens, UniProt P33261). Nature of the series: biochemical. The procedure: (§4) Table S4. Inhibition of cytochrome P450s.
(§5) Compounds were tested for inhibition of P450s using the enzyme substrate pairs and conditions noted. IC50s (µM) were calculated. Control P450 inhibitors were included for each isoform.
(§6) For each compound, the analytical method was developed as follows. Analyte signal was optimized for each compound by ESI positive or negative ionization mode. An MS2 scan or an SIM scan was used to optimize fragmenter voltage and a product ion analysis was used to identify the best fragment for analysis. The collision energy was optimized using a product ion or MRM scan. An ionization ranking was assigned indicating the compound’s ease of ionization. Samples […]
(§7) 1200 HPLC and a CTC PAL chilled autosampler, all controlled by MassHunter software (Agilent).
(§8) After separation on a C18 reverse phase HPLC column (Agilent Zorbax StableBond 3.5µm, 2.1 x 30 mm) using an acetonitrile -water gradient system, peaks were analyzed by mass spectrometry (MS) using ESI ionization in MRM mode.
(§9) (1 picture or pasted object on this page, not shown here)
(§10) Serial dilutions of a 10 mM stock solution were prepared in acetonitrile:DMSO (9:1). The final DMSO concentration was < 0.2%. Compounds were incubated with human liver microsomes in the presence of 2 mM NADPH in 100 mM potassium phosphate (pH 7.4) containing 5 mM magnesium chloride and a probe substrate, in a 200 µl assay final volume in duplicate. The probe substrate concentrations including bupropion (CYP2B6), amodiaquine (CYP2C8), tolbutamide (CYP2C9), mephenytoin (CYP2C19), dextromethorphan (CYP2D6) and midazolam/testosterone […]
(§11) After incubation at 37 °C, reactions were terminated by addition of methanol containing internal standard (propranolol) for analytical quantification. The quenched samples were kept on ice for 10 min and centrifuged at 4 °C for 10 min. The supernatant was removed and the probe substrate metabolite was analyzed by LC-MS/MS (Agilent Technologies Triple Quad LC/MS). A decrease in the formation of the metabolite compared to vehicle control

Series [6] concerns the target T1, CYP2C8 (Homo sapiens, UniProt P10632).
T1 sequence (P10632 1-490): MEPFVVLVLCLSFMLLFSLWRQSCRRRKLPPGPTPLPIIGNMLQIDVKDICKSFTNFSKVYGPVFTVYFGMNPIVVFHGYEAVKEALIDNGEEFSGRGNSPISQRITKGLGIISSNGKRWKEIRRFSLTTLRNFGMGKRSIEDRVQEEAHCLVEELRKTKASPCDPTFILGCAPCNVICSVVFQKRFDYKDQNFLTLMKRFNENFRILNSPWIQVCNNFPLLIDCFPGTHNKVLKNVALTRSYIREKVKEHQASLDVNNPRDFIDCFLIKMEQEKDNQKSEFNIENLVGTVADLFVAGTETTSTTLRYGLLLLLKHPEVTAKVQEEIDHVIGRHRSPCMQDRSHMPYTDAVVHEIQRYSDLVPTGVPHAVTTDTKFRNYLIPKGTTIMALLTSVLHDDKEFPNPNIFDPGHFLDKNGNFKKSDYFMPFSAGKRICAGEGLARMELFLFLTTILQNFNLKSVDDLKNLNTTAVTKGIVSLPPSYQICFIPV
Nature of the series: biochemical. On the procedure:
as §4, §5, §6, §7, §8, §9, §10, §11

Series [7] in a line: Microsomal metabolic stability. The following applies: human, pH 7.4. On the procedure:
as §1
Table S3. Metabolic stability. Metabolic stability was measured using human liver microsomes. […]

The subject of series [8] is M. tuberculosis strain under expressing LepB (LepB-UE). Nature of the series: microbe, parasite or virus in culture. It counts as cell-based, Mycobacterium tuberculosis. Conditions: for MIC: Mycobacterium tuberculosis, 120 h.
Series [9] in a line: Plasma protein binding (Rapid Equilibrium Dialysis). It counts as in vitro ADME, human. Conditions: human; for fraction unbound at 4 h, 5 µM: plasma. On the procedure:
Molecule fraction fraction Post-Assay
Table S5. Plasma protein binding
Protein binding was measured in human plasma using Rapid Equilibrium Dialysis (RED) devices (Pierce) according to the manufacturers’ instructions; 5 µM compounds in plasma were dialysed against PBS for 4 h at 37C. Compounds were detected by LC-MS/MS in plasma and PBS
(In general: Equilibrium dialysis compares concentrations on both sides of a semipermeable membrane.)

Series [10] concerns HepG2 cells. Nature of the series: HepG2 cytotoxicity. It counts as cell-based, human. Conditions: 3 days exposure, CellTiter-Glo. On the procedure:
HepG2 cells were used to measure eukaryotic cytotoxicity. Viability of HepG2 was measured using CellTiter-Glo reagent (Promega) after 3 days of exposure to compounds. […] Staurosporine controls (maximum inhibition) and a staurosporine dose response were included on every plate.
(Cellular ATP, detected with luciferase, serves as a proxy for viable cell number.)

The target of series [11] is T2, CYP2B6 (Homo sapiens, UniProt P20813).
T2 sequence (P20813 1-491): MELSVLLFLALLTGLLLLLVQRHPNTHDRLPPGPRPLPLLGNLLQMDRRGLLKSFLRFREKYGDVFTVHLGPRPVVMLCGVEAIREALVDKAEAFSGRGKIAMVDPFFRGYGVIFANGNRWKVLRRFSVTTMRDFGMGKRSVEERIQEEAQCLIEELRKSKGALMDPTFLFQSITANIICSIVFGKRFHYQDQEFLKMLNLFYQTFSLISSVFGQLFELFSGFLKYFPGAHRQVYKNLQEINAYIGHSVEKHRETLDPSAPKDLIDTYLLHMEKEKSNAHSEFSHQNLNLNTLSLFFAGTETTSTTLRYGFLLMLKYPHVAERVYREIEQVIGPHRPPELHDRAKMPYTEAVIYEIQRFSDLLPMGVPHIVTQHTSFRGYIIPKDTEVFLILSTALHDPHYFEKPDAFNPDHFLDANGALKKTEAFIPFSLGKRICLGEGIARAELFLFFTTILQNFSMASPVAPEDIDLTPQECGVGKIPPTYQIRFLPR
Nature of the series: Cytochrome P450 inhibition. The procedure: as §4, §5, §6, §7, §8, §9, §10, §11

Series [12] deals with CYP2D6 (Homo sapiens, UniProt P10635). Nature of the series: biochemical. On the procedure:
as §4
(§12) Compounds were tested for inhibition of P450s using the enzyme substrate pairs and conditions noted. IC50s (µM) were calculated. Control P450 inhibitors were included for each isoform. […]
as §7, §8, §10, §11

The target of series [13] is CYP3A4 (Homo sapiens, UniProt P08684). Nature of the series: Cytochrome P450 inhibition. Conditions: liver microsomes. It counts as in vitro ADME. On the procedure: as §4, §5, §6, §7, §8, §9, §10, §11
Series [14] addresses CYP2C9 (Homo sapiens, UniProt P11712). Nature of the series: biochemical. On the procedure:
as §4, §12, §10, §11

The test system of series [15] is replicating M. tuberculosis. Nature of the series: Kill kinetics, replicating bacteria. The following applies: aerobic growth.
Series [16] concerns RAW 264.7 macrophages. Nature of the series: Cytotoxicity against infected macrophages. It counts as cell-based, murine. Conditions: Mus musculus; infected RAW264:7 cells, 72 h; read-out: IC50 Macrophage. The procedure: (§13) Murine RAW 264.7 macrophages (ATCC TIB-71) were infected with M. tuberculosis DsRed (DREAM8) ([29]) as described at a multiplicity of infection of 1 for 24 h, washed, harvested, and dispensed into 384-well plates ([30]). Infected macrophages were exposed to compounds for 72 h; cell nuclei were stained with SYBR green I. Plates were imaged with an ImageXpress Micro High Content Screening System (Molecular Devices) using a ×4 objective and FITC and Texas Red channels. MetaXpress was used to determine the integrated intensity of bacteria or macrophages. […] Isoniazid and staurosporine controls (maximum inhibition) and dose responses were included on every plate.

Series [17] concerns nonreplicating M. tuberculosis. Nature of the series: Kill kinetics, nonreplicating (nutrient starved) bacteria. It counts as cell-based, Mycobacterium tuberculosis. The following applies: nutrient starvation, PBS-tyloxapol.
Series [18] relates to intracellular M. tuberculosis (MTB) in RAW 264.7 macrophages. Nature of the series: Activity against intracellular M. tuberculosis in macrophages (high-content microscopy). It counts as cell-based. Conditions: Mycobacterium tuberculosis, RAW264.7, 72 h, intracellular M. tuberculosis in RAW 264.7 macrophages. On the procedure:
as §13

Chain of CYP3A4 (P08684 2-503): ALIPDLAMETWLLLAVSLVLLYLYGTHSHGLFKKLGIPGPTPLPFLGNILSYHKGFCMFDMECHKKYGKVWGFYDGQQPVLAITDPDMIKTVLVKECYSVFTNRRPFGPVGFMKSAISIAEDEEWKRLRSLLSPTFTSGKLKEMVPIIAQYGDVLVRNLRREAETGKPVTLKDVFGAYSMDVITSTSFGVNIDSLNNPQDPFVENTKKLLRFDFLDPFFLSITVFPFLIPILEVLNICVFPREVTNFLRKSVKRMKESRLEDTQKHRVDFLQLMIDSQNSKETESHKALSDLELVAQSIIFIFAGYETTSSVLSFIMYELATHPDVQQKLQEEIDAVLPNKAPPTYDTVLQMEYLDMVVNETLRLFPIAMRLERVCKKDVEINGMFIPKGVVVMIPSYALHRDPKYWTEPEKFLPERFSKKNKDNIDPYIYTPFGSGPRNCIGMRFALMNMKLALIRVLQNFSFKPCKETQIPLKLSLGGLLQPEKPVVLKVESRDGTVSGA
Chain of SPase activity in M. tuberculosis H37Rv cell membrane fractions (P9WKA1 whole entry): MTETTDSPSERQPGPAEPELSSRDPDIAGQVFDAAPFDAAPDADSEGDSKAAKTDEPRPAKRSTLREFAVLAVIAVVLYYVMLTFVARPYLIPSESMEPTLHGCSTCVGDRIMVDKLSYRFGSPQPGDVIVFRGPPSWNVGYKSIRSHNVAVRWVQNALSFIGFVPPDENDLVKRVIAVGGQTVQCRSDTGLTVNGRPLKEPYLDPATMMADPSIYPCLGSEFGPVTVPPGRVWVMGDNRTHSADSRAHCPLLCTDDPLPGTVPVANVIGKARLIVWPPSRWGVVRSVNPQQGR
Chain of CYP2C19 (P33261 whole entry, canonical isoform): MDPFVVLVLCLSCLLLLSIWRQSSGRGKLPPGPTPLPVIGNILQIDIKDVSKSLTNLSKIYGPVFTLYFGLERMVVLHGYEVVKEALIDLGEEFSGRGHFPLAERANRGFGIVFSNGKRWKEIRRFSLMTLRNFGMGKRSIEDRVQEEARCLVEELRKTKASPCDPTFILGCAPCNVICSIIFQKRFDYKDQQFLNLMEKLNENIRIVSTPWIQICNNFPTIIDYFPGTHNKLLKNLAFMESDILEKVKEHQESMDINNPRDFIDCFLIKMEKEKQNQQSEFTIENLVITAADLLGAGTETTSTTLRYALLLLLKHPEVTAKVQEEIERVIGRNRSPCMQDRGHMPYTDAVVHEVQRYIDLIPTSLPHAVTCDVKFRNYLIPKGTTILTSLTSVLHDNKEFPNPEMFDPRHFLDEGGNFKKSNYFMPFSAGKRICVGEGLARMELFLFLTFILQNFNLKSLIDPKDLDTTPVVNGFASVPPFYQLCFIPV
Chain of CYP2C9 (P11712 whole entry): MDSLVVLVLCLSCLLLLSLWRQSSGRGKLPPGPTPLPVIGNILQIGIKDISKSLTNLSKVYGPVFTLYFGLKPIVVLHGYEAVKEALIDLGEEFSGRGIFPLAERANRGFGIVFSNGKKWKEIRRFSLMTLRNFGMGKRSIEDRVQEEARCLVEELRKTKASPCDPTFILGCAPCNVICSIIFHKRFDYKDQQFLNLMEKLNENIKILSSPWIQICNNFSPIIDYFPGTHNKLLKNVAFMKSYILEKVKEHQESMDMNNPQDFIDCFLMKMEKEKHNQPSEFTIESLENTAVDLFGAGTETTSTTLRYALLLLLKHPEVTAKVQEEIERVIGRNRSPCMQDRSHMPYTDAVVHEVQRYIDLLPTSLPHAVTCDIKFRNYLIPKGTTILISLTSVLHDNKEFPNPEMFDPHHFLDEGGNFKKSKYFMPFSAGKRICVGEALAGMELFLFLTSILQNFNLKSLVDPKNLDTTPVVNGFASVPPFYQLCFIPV
Chain of CYP2D6 (P10635 whole entry): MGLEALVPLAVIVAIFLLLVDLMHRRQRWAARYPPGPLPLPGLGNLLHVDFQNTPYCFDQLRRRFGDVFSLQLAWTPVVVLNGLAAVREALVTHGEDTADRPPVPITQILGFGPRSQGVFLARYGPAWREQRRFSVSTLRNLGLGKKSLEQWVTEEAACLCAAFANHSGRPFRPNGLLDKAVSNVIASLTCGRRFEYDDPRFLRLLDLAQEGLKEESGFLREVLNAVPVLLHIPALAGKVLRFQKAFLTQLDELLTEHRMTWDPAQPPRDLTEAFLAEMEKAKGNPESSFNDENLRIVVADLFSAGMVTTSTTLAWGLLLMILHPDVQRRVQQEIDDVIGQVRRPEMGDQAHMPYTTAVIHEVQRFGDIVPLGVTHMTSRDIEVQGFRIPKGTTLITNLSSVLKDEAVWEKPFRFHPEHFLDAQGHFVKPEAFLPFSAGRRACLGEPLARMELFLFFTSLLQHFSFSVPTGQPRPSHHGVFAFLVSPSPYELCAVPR

Broadly, the Papp A→B is the apparent permeability from the apical to the basolateral side of a cell layer. A low value points to slow passage. Usually Papp B→A stands for the apparent permeability from the basolateral to the apical side of a cell layer. As usually defined, the efflux ratio is a quotient of directional permeabilities that is used to spot active efflux. A word on the IC50: it is the concentration at which inhibition is half-maximal. As a reminder, the half-life is how long it takes for the measured level to halve. High values mean slow decline, low ones rapid decline. Usually microsomal CLint stands for a measure of how fast metabolising enzymes remove a compound, apart from limits set by blood flow. Low readings indicate slow turnover, high ones rapid turnover. For orientation: fraction unbound means free concentration divided by total concentration. A low value points to little free substance. `CCCCNC(=S)Nc1nccs1` [Molecule 14, 1-butyl-3-(thiazol-2-yl)thiourea]: the MIC came to 34 µM (≈ 7.32 µg/mL) in series [1] and 41 µM (≈ 8.83 µg/mL) in [8]. Moreover, the “MIC Wild type” value in [1] was 34 ± 3.0 µM (≈ 7.32 µg/mL). Further, the apical-to-basolateral permeability (Papp A→B) at 2 h, 10 µM in series [2] (Caco-2) is 22 ×10⁻⁶ cm/s. In addition, in [2] (Caco-2), the Papp B→A at 2 h, 10 µM came to 18 ×10⁻⁶ cm/s. For the same compound, the efflux ratio at 2 h, 10 µM in series [2] (Caco-2) came to 0.81. The recovery at 1 h, 10 μM in series [2] (Caco-2, recovery) was 57%. In series [2] (Caco-2, recovery), this compound yielded a recovery at 2 h, 10 μM of 59%. Further, the “dQ/dt (rate of permeation), mean” value in series [3] (A→B, assay duration 1 hr) was 2.6E-04; in [3] (A→B, assay duration 2 hr) it was 1.5E-04; in series [3] (B→A, assay duration 1 hr), 2.3E-04; in series [3] (B→A, assay duration 2 hr), 1.6E-04. Also, the recovery in series [3] (Caco-2, 1 h) is 72%; in series [3] (Caco-2, 2 h), 65%. For the same compound, the half-maximal inhibitory concentration (IC50) in series [4] was greater than 200 µM; in series [5], 13.5 µM; in series [6], greater than 20 µM; in series [10] (Homo sapiens, HepG2, 72 h) it was 75 ± 26 µM; in series [11], greater than 20 µM; in [12] it was greater than 20 µM. The compound also gave a concentration for half-maximal inhibition (IC50) in series [14] of 13.2 µM. The compound further had a half-life at 1 µM in series [7] (liver microsomes) of 26 min. This compound also had a microsomal CLint at 1 µM in series [7] (microsomes) of 89 µL/min/mg. For the same compound, the “MIC LepB-UE” value in series [8] was determined as 41 ± 0.1 µM (≈ 8.83 µg/mL). Besides, the recovery at 4 h, 5 µM in series [9] worked out at 83.8%. The free fraction (fraction unbound) at 4 h, 5 µM amounted to 0.01 in [9] (Mean plasma fraction Bound) and 0.0098 in [9] (Mean plasma fraction Unbound Fuplasma). The IC50 at 10 min in [13] (pH 7.4, probe midazolam) is greater than 20 µM; in [13] (pH 7.4, probe testosterone), greater than 20 µM.

For the compound `Cc1coc(NC(=S)NCC(C)C)n1` [Molecule 29, 1-isobutyl-3-(4-methyloxazol-2-yl)thiourea], the values for the MIC in series [1] and in series [8] were 20 to 40 µM (≈ 4.27 to 8.53 µg/mL) and 12 to 21 µM (≈ 2.56 to 4.48 µg/mL), respectively. In addition, the “MIC Wild type” value in series [1] was determined as 20 ± 23 µM (≈ 4.27 µg/mL). For the same compound, the “MIC LepB-UE” value in series [8] stood at 12 ± 1.0 µM (≈ 2.56 µg/mL). Moreover, the IC50 is 27 ± 6 µM in series [10]; 27 to 78 µM in series [10] (Homo sapiens, HepG2, 72 h); 8.1 ± 1.6 µM in series [16]. For the same compound, in [15], the “concentration with bactericidal activity (defined as 3 log kill)” value came to 27.5 μM. Also, the “concentration giving sterilization of nonreplicating organisms” value in series [17] was determined as 100 µM.

Turning to `CCCNC(=S)Nc1nc2c(Cl)cccc2s1` [Molecule 31, 1-(4-chlorobenzo[d]thiazol-2-yl)-3-propyl thiourea], the MIC in series [1] is greater than 100 µM; in series [8], 14 µM (≈ 4 µg/mL). In addition, in [8], the “MIC LepB-UE” value is 14 ± 2.0 µM (≈ 4 µg/mL). Moreover, the 50% inhibitory concentration (IC50) in series [10] (Homo sapiens, HepG2, 72 h) was greater than 100 µM; in series [16] it was greater than 100 µM; in series [18], 11 ± 2.2 µM.
